Experimental data reported in PMC8453901, “GLPG1205, a GPR84 Modulator: Safety, Pharmacokinetics, and Pharmacodynamics in Healthy Subjects” (Clinical Pharmacology in Drug Development, 2021).
Like-named read-outs stand apart in the source and are kept apart here.

Assays:
[1] = set-up: method as in PMID 32902984; conditions: rats, up to 100 mg/kg/d; cited from earlier work
[2] = system: CYP1A2; set-up: method as in data on file at Galapagos; conditions: in vitro; ref data on file at Galapagos; cited from earlier work
[3] = Study 1 SAD part: plasma pharmacokinetics after single oral doses; assay type: in vivo, human; conditions: for half-life / Tmax / Cmax / AUC(0-inf) / AUC / concentration at 24 h: male, human, plasma, oral; for AUC: read-out: AUC0‐24h; for concentration at 24 h: read-out: C24h
Protocol: GLPG1205 or matching placebo were administered as an oral nanosuspension in the morning in a fed condition as an outpatient. For both the single ascending doses (SADs) and multiple ascending doses (MADs) parts of the study, subjects attended a screening visit (21 to 2 days before first study drug administration) and a follow‐up visit (7 to 10 days after the last dose).
The SAD part of the study comprised 16 healthy male subjects in 2 alternating cohorts (A and B, n = 8 each). Cohort A received GLPG1205 10, 90, 400, and 800 mg or matching placebo, and cohort B received GLPG1205 30, 200, and 600 mg or matching placebo. Subjects were randomly assigned to receive GLPG1205 or matching placebo in a 3:1 ratio once at the beginning of the study. In addition, subjects in cohorts A and B were randomized to a treatment sequence. […] An interval of at least 3 days was enforced between 2 dose levels (between cohort A and B). Subjects were kept in‐house from the evening of day –1 to ≈26 hours after dosing (morning of day 2).
In the SAD part of study 1, blood samples (2 mL) for PK assessments were obtained before dosing and at multiple time points on the day of study drug administration (before dosing and 0.5, 1, 2, 4, 6, 8, and 12 hours after dosing) and at 24, 48, and 72 hours after dosing. The predose sample for the next dose level was also used in PK analysis (168 hours after dosing). […] In the MAD part of study 1, blood samples (2 mL) were obtained on days 1, 2, 4, 5, 6, 8, 10, 12, 14, 15, 16, 17, and 18 and at follow‐up (approximately 7 to 10 days after the last dose). These PK blood samples were taken after dosing (1, 2, 4, 6, 8, 12, and 24 hours) on day 1; before dosing on days 4, 6, 8, and 10; and after dosing (1, 2, 4, 6, 8, 12, 24, 72, and 96 hours) on day 14. The following additional PK blood samples were also taken: cohort C, before dosing on day 5; and cohorts D and E, before dosing on day 12. Urine samples were obtained from fractions collected over 6‐ or 12‐hour periods after dosing on days –1, 1, 2, 13, 14, and 15; samples obtained on days –1 and 13 were for cytochrome P450 (CYP) induction analysis only. In study 2, blood samples (2 mL) were obtained on days 1, 2, 5, 7, 10, 14, 15, 17, and 20 and at follow‐up (approximately 21 days after end of study medication administration). Blood samples were taken before dosing and at 1, 2, 4, 6, 8, 12, and 24 hours after drug administration on days 1 and 14 and before dosing on other sampling days.
Blood samples were immediately chilled (ice bath), and the plasma was separated by centrifugation (4°C for 10 minutes at ≈1500 g) within 30 minutes of blood collection.
GLPG1205 plasma concentrations were determined using a validated liquid chromatography with tandem mass spectrometry method. After a protein precipitation with methanol, a chromatographic separation was performed on a Kinetex C18 column (50×3.0 mm, 2.6 μm; Phenomenex, Torrance, California) set at 40°C by using a Nexera high‐performance liquid chromatography (HPLC) system (Shimadzu, Kyoto, Japan) or an Infinity HPLC system (Agilent Technologies, Diegem, Belgium) in isocratic elution mode. A QTRAP6500, QTRAP4000, or API4000 mass spectrometer (AB Sciex, Nieuwerkerk aan den Ijssel, The Netherlands) equipped with a TurboIonSpray probe operated in the multiple reaction monitoring in positive mode was used for quantification. The calibration curves in plasma were linear over the range of 1 to 1000 ng/mL with 1/x^2 as weighting factor. The limit of quantification of the assay in the plasma samples was set at 1 ng/mL.
PK calculations were performed using Phoenix WinNonlin 6.2 (Pharsight Corporation, Palo Alto, California). […] AUC0‐inf was calculated from the area under the plasma concentration‐time curve from time 0 until the time corresponding with the last observed quantifiable concentration + Ct/λz, where Ct was the last observed quantifiable concentration and λz the first‐order terminal rate constant. […]

[4] = set-up: method as in PMID 32902984; conditions: mouse, rat, and dog; cited from earlier work
[5] = single 10 mg, arithmetic mean (CV%)
[6] = single 30 mg, arithmetic mean (CV%)
[7] = single 90 mg, arithmetic mean (CV%)
[8] = single 200 mg, arithmetic mean (CV%)
[9] = single 400 mg, arithmetic mean (CV%)
[10] = single 600 mg, arithmetic mean (CV%)
[11] = single 800 mg, arithmetic mean (CV%)

O=c1nc(OC[C@@H]2COCCO2)cc2n1CCc1cc(C#CC3CC3)ccc1-2 [GLPG1205, 9‐cyclopropylethynyl‐2‐((S)‐1‐[1,4]dioxan‐2‐ylmethoxy)‐6,7‐dihydropyrimido[6,1‐a]isoquinolin‐4‐one]
dose-proportionality of exposure [1]: increased dose‐proportionally | induction of CYP1A2 [2]: weak induction | half-life ([3]; after single administration, 10 to 800 mg, read-out: arithmetic mean apparent terminal half-life (t1/2,λz) range): 30.1 to 140 h | Tmax ([3]; after single administration, 10 to 800 mg, read-out: median tmax range): 2 to 4 h | Cmax [3, 5]: 94.2 ng/mL | AUC(0-inf) ([3]; single 10 mg, arithmetic mean (CV%), N = 3): 3310 ng·h/mL | AUC [3, 5]: 1330 ng·h/mL | concentration at 24 h [3, 5]: 39.8 ng/mL | half-life ([3]; single 10 mg, arithmetic mean (CV%), read-out: t1/2,λz (converted)): 32.2 h | Cmax [3, 6]: 284 ng/mL | AUC(0-inf) ([3]; single 30 mg, arithmetic mean (CV%), N = 4): 11500 ng·h/mL | half-life ([3]; single 30 mg, arithmetic mean (CV%), N = 5, read-out: t1/2,λz (converted)): 30.1 h | AUC [3, 6]: 4470 ng·h/mL | concentration at 24 h [3, 6]: 144 ng/mL | Tmax ([3]; single 30 mg, median (minimum-maximum), read-out: tmax): 4 h | Cmax [3, 7]: 890 ng/mL | AUC(0-inf) ([3]; single 90 mg, arithmetic mean (CV%), N = 4): 52300 ng·h/mL | AUC [3, 7]: 14300 ng·h/mL | concentration at 24 h [3, 7]: 511 ng/mL | half-life ([3]; single 90 mg, arithmetic mean (CV%), read-out: t1/2,λz (converted)): 57.7 h | Tmax ([3]; single 90 mg, median (minimum-maximum), read-out: tmax): 4 h | Cmax [3, 8]: 2200 ng/mL | AUC(0-inf) ([3]; single 200 mg, arithmetic mean (CV%), N = 4): 120000 ng·h/mL | half-life ([3]; single 200 mg, arithmetic mean (CV%), N = 5, read-out: t1/2,λz (converted)): 54.3 h | AUC [3, 8]: 35800 ng·h/mL | concentration at 24 h [3, 8]: 1260 ng/mL | Tmax ([3]; single 200 mg, median (minimum-maximum), read-out: tmax): 3 h | Cmax [3, 9]: 3390 ng/mL | AUC [3, 9]: 58000 ng·h/mL | concentration at 24 h [3, 9]: 2150 ng/mL | half-life ([3]; single 400 mg, arithmetic mean (CV%), read-out: t1/2,λz (converted)): 92.4 h | AUC(0-inf) ([3]; single 400 mg, arithmetic mean, N = 2): 224000 ng·h/mL | Tmax ([3]; single 400 mg, median (minimum-maximum), read-out: tmax): 4 h | Cmax [3, 10]: 5530 ng/mL | half-life ([3]; single 600 mg, arithmetic mean (CV%), N = 3, read-out: t1/2,λz (converted)): 75 h | AUC [3, 10]: 94000 ng·h/mL | concentration at 24 h [3, 10]: 3410 ng/mL | Tmax ([3]; single 600 mg, median (minimum-maximum), read-out: tmax): 4 h | Cmax [3, 11]: 7500 ng/mL | AUC [3, 11]: 130000 ng·h/mL | concentration at 24 h [3, 11]: 5000 ng/mL | half-life ([3]; single 800 mg, arithmetic mean, N = 2, read-out: t1/2,λz (converted)): 140 h | Tmax ([3]; single 800 mg, median (minimum-maximum), read-out: tmax): 4 h | dose-proportionality of exposure ([3]; single doses between 10 and 800 mg): did not markedly deviate from dose‐proportionality | oral absolute exposure [4]: ≥ 68%
